Structures can show the parent of a compound that is named as a salt.

The assay addresses T1, full length SGK1 (Homo sapiens, UniProt O00141).
T1 construct: 125 μM full length SGK1 (Life Technologies Part #PR7358A); purchased Life Technologies PR7358A
T1 sequence (O00141 1-431): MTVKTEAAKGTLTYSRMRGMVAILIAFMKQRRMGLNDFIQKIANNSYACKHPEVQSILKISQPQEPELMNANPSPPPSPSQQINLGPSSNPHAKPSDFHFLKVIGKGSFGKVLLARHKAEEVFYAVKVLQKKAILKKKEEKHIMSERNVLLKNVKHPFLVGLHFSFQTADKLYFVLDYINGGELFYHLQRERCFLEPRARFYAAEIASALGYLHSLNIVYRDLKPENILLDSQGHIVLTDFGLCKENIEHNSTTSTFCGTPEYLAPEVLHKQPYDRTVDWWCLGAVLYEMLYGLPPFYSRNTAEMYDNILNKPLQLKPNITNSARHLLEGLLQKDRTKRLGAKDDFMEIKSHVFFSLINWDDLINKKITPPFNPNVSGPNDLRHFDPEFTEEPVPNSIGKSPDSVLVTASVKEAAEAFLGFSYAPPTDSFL
Put plainly: SGK1 inhibition Assay A (Caliper LabChip electrophoretic separation of fluorescent peptide substrate and phosphorylated product). Format: biochemical. To be noted: Assay A; 20 μM ATP, 40 min incubation; read-out: SGK1 IC50.

Regarding `CS(=O)(=O)c1ccc(-c2cc(N3CCCC(NC(=O)c4ccccn4)C3)c3c(N)ncnn23)cc1` (stereo not shown) [Example 2, N-(1-(4-amino-7-(4-(methylsulfonyl)phenyl)pyrrolo[2,1-f][1,2,4]triazin-5-yl)piperidin-3-yl)picolinamide, TFA], the IC50 came to 81 nM.
As to `CS(=O)(=O)c1ccc(-c2cc(N3CCCC(NC(=O)c4cccnn4)C3)c3c(N)ncnn23)cc1` (stereo not shown) [Example 3, N-(1-(4-amino-7-(4-(methylsulfonyl)phenyl)pyrrolo[2,1-f][1,2,4]triazin-5-yl)piperidin-3-yl)pyridazine-3-carboxamide, TFA], the IC50 came to 239 nM.
Under `CS(=O)(=O)c1ccc(-c2cc(N3CCCC(NC(=O)c4ccccc4)C3)c3c(N)ncnn23)cc1` (stereo not shown) [Example 4, N-(1-(4-amino-7-(4-(methylsulfonyl)phenyl)pyrrolo[2,1-f][1,2,4]triazin-5-yl)piperidin-3-yl)benzamide] stands 33 nM; under `CS(=O)(=O)c1ccc(-c2cc(N3CCCC(NC(=O)c4ccc(Cl)cc4)C3)c3c(N)ncnn23)cc1` (stereo not shown) [Example 5, N-(1-(4-amino-7-(4-(methylsulfonyl)phenyl)pyrrolo[2,1-f][1,2,4]triazin-5-yl)piperidin-3-yl)-4-chlorobenzamide, TFA], 73 nM.
Under `CS(=O)(=O)c1ccc(-c2cc(N3CCCC(NC(=O)c4ccc(Cl)c(Cl)c4)C3)c3c(N)ncnn23)cc1` (stereo not shown) [Example 6, N-(1-(4-amino-7-(4-(methylsulfonyl)phenyl)pyrrolo[2,1-f][1,2,4]triazin-5-yl)piperidin-3-yl)-3,4-dichlorobenzamide] stands 157 nM.
Under `Cc1ccc(C(=O)NC2CCCN(c3cc(-c4ccc(S(C)(=O)=O)cc4)n4ncnc(N)c34)C2)cc1` (stereo not shown) [Example 7, N-(1-(4-amino-7-(4-(methylsulfonyl)phenyl)pyrrolo[2,1-f][1,2,4]triazin-5-yl)piperidin-3-yl)-4-methylbenzamide, TFA] stands 90 nM; under `COc1ccc(C(=O)NC2CCCN(c3cc(-c4ccc(S(C)(=O)=O)cc4)n4ncnc(N)c34)C2)cc1` (stereo not shown) [Example 8, N-(1-(4-amino-7-(4-(methylsulfonyl)phenyl)pyrrolo[2,1-f][1,2,4]triazin-5-yl)piperidin-3-yl)-4-methoxybenzamide, TFA], 67 nM.
Take `CS(=O)(=O)c1ccc(-c2cc(N3CCCC(NC(=O)Nc4ccccc4)C3)c3c(N)ncnn23)cc1` (stereo not shown) [Example 9, 1-(1-(4-amino-7-(4-(methylsulfonyl)phenyl)pyrrolo[2,1-f][1,2,4]triazin-5-yl)piperidin-3-yl)-3-phenylurea, TFA]: the IC50 worked out at 263 nM.
In the case of `CC(C)(C)OC(=O)N[C@@H]1CCCN(c2cc(-c3ccc(S(C)(=O)=O)cc3)n3ncnc(N)c23)C1` [Example 11, tert-butyl (R)-(1-(4-amino-7-(4-(methylsulfonyl)phenyl)pyrrolo[2,1-f][1,2,4]triazin-5-yl)piperidin-3-yl)carbamate] it was 1750 nM.
On to `CS(=O)(=O)c1ccc(-c2cc(N3CCC[C@@H](NC(=O)c4ccccc4)C3)c3c(N)ncnn23)cc1` [Example 13, (R)—N-(1-(4-amino-7-(4-(methylsulfonyl)phenyl)pyrrolo[2,1-f][1,2,4]triazin-5-yl)piperidin-3-yl)benzamide], for which the IC50 was 28 nM.
Under `CS(=O)(=O)c1ccc(-c2cc(N3CCC[C@@H](NC(=O)Cc4ccccc4)C3)c3c(N)ncnn23)cc1` [Example 14, (R)-N-(1-(4-amino-7-(4-(methylsulfonyl)phenyl)pyrrolo[2,1-f][1,2,4]triazin-5-yl)piperidin-3-yl)-2-phenylacetamide, TFA] stands 941 nM; under `CS(=O)(=O)c1ccc(-c2cc(N3CCC[C@@H](NC(=O)CCc4ccccc4)C3)c3c(N)ncnn23)cc1` [Example 15, (R)-N-(1-(4-amino-7-(4-(methylsulfonyl)phenyl)pyrrolo[2,1-f][1,2,4]triazin-5-yl)piperidin-3-yl)-3-phenylpropanamide, TFA], 499 nM; under `CS(=O)(=O)c1ccc(-c2cc(N3CCC[C@@H](NC(=O)C4CCCCC4)C3)c3c(N)ncnn23)cc1` [Example 16, (R)-N-(1-(4-amino-7-(4-(methylsulfonyl)phenyl)pyrrolo[2,1-f][1,2,4]triazin-5-yl)piperidin-3-yl) cyclohexanecarboxamide], 324 nM.
In the case of `CS(=O)(=O)c1ccc(-c2cc(N3CCC[C@@H](NC(=O)C4CCOCC4)C3)c3c(N)ncnn23)cc1` [Example 17, (R)-N-(1-(4-amino-7-(4-(methylsulfonyl)phenyl)pyrrolo[2,1-f][1,2,4]triazin-5-yl)piperidin-3-yl)tetrahydro-2H-pyran-4-carboxamide, TFA], the IC50 stood at 1300 nM.
In the case of `CS(=O)(=O)c1ccc(-c2cc(N3CCC[C@@H](NC(=O)c4ccccc4Cl)C3)c3c(N)ncnn23)cc1` [Example 19, (R)-N-(1-(4-amino-7-(4-(methylsulfonyl)phenyl)pyrrolo[2,1-f][1,2,4]triazin-5-yl)piperidin-3-yl)-2-chlorobenzamide] it was 274 nM; in that of `CS(=O)(=O)c1ccc(-c2cc(N3CCC[C@@H](NC(=O)c4ccccc4F)C3)c3c(N)ncnn23)cc1` [Example 20, (R)-N-(1-(4-amino-7-(4-(methylsulfonyl)phenyl)pyrrolo[2,1-f][1,2,4]triazin-5-yl)piperidin-3-yl)-2-fluorobenzamide], 47 nM; in that of `CS(=O)(=O)c1ccc(-c2cc(N3CCC[C@@H](NC(=O)c4cccc(Cl)c4)C3)c3c(N)ncnn23)cc1` [Example 21, (R)-N-(1-(4-amino-7-(4-(methylsulfonyl)phenyl)pyrrolo[2,1-f][1,2,4]triazin-5-yl)piperidin-3-yl)-3-chlorobenzamide], 13 nM.
Under `COc1cccc(C(=O)N[C@@H]2CCCN(c3cc(-c4ccc(S(C)(=O)=O)cc4)n4ncnc(N)c34)C2)c1` [Example 22, (R)-N-(1-(4-amino-7-(4-(methylsulfonyl)phenyl)pyrrolo[2,1-f][1,2,4]triazin-5-yl)piperidin-3-yl)-3-methoxybenzamide] stands 12 nM; under `Cc1cccc(C(=O)N[C@@H]2CCCN(c3cc(-c4ccc(S(C)(=O)=O)cc4)n4ncnc(N)c34)C2)c1` [Example 23, (R)-N-(1-(4-amino-7-(4-(methylsulfonyl)phenyl)pyrrolo[2,1-f][1,2,4]triazin-5-yl)piperidin-3-yl)-3-methylbenzamide], 11 nM.
Regarding `CS(=O)(=O)c1ccc(-c2cc(N3CCC[C@@H](NC(=O)c4cccc(C(F)(F)F)c4)C3)c3c(N)ncnn23)cc1` [Example 24, (R)-N-(1-(4-amino-7-(4-(methylsulfonyl)phenyl)pyrrolo[2,1-f][1,2,4]triazin-5-yl)piperidin-3-yl)-3-(trifluoromethyl) benzamide], the IC50 turned out to be 41 nM.
Under `CS(=O)(=O)c1ccc(-c2cc(N3CCC[C@@H](NC(=O)c4ccc(F)cc4)C3)c3c(N)ncnn23)cc1` [Example 25, (R)-N-(1-(4-amino-7-(4-(methylsulfonyl)phenyl)pyrrolo[2,1-f][1,2,4]triazin-5-yl)piperidin-3-yl)-4-fluorobenzamide] stands 22 nM.
For `CS(=O)(=O)c1ccc(-c2cc(N3CCC[C@@H](NC(=O)c4ccc(F)c(F)c4)C3)c3c(N)ncnn23)cc1` [Example 26, (R)-N-(1-(4-amino-7-(4-(methylsulfonyl)phenyl)pyrrolo [2,1-f][1,2,4]triazin-5-yl)piperidin-3-yl)-3,4-difluorobenzamide], the half-inhibitory concentration (IC50) came out at 19 nM.
In the case of `CS(=O)(=O)c1ccc(-c2cc(N3CCC[C@@H](NC(=O)c4ccncc4)C3)c3c(N)ncnn23)cc1` [Example 27, (R)-N-(1-(4-amino-7-(4-(methylsulfonyl)phenyl)pyrrolo[2,1-f][1,2,4]triazin-5-yl)piperidin-3-yl)isonicotinamide] it was 12 nM; in that of `Cn1cc(C(=O)N[C@@H]2CCCN(c3cc(-c4ccc(S(C)(=O)=O)cc4)n4ncnc(N)c34)C2)cn1` [Example 28, (R)-N-(1-(4-amino-7-(4-(methylsulfonyl)phenyl)pyrrolo[2,1-f][1,2,4]triazin-5-yl)piperidin-3-yl)-1-methyl-1H-pyrazole-4-carboxamide], 32 nM; in that of `CS(=O)(=O)c1ccc(-c2cc(N3CCC[C@@H](NC(=O)C4CC5(CCC5)C4)C3)c3c(N)ncnn23)cc1` [Example 29, (R)-N-(1-(4-amino-7-(4-(methylsulfonyl)phenyl)pyrrolo [2,1-f][1,2,4]triazin-5-yl)piperidin-3-yl)spiro[3.3]heptane-2-carboxamide], 181 nM.
Under `CS(=O)(=O)c1ccc(-c2cc(N3CCC[C@@H](NC(=O)c4ccnnc4)C3)c3c(N)ncnn23)cc1` [Example 30, (R)-N-(1-(4-amino-7-(4-(methylsulfonyl)phenyl)pyrrolo[2,1-f][1,2,4]triazin-5-yl)piperidin-3-yl)pyridazine-4-carboxamide] stands 65 nM; under `CS(=O)(=O)c1ccc(-c2cc(N3CCC[C@@H](NC(=O)c4ccncn4)C3)c3c(N)ncnn23)cc1` [Example 31, (R)-N-(1-(4-amino-7-(4-(methylsulfonyl)phenyl)pyrrolo[2,1-f][1,2,4]triazin-5-yl)piperidin-3-yl)pyrimidine-4-carboxamide], 112 nM.
In the case of `CS(=O)(=O)c1ccc(-c2cc(N3CCC[C@@H](NC(=O)c4ccnc(F)c4)C3)c3c(N)ncnn23)cc1` [Example 32, (R)-N-(1-(4-amino-7-(4-(methylsulfonyl)phenyl)pyrrolo[2,1-f][1,2,4]triazin-5-yl)piperidin-3-yl)-2-fluoroisonicotinamide, TFA] it was 11 nM.

Values taken from patent US20260250290A1 (BRISTOL-MYERS SQUIBB COMPANY, priority 2023, published 2026).
